These results are taken from US20080058264A1, “AMINO-ACID CONTAINING COMPOSITION FOR INHIBITING ACCUMULATION OF FAT” (AJINOMOTO CO. INC, priority 2006, published 2008).

Structures are written as SMILES.

Data set [1] has as its system C57BL/6J male mice. Description: Experimental Example 1: mice fed high-fat feed with added amino acids for eight weeks. It counts as in vivo. The note with it: compared with HF feed, 2.0% single amino acid or 1.0%+1.0% in high-fat feed; for body weight of mice at autopsy: FIG. 1; for weight of fat tissue of mice at autopsy (accumulation of body fat): FIG. 2. The protocol: Forty C57BL/6J male mice (eight-weeks old, available from CLEA Japan, Inc.) were fed with CRF-1 powder (available from Oriental Yeast Co., Ltd.) during one-week acclimation period. The mice were then subjected to an experiment at the beginning of nine-weeks old. […] The weight of feed intake was individually measured, and the amount of energy intake was calculated from the energy value corresponding to 1 g of each experimental feed. After the eight-weeks' experiment by feeding with the respective experimental diets, the mice were subjected to autopsy to determine their body weight, and total fat weight including the peri-epididymal fat, peri-renal fat, mesenteric fat, and subcutaneous fat around the femurs.

The test system of data set [2] is C57BL/6J male mice. Description: Reference Example: mice fed high-fat feed with 3.0% L-threonine for eight weeks. In kind it is in vivo. The protocol: Twenty C57BL/6J male mice (eight-weeks old, available from CLEA Japan, Inc.) were fed with CRF-1 powder (available from Oriental Yeast Co., Ltd.) during one-week acclimation period. The mice were then subjected to an experiment at the beginning of nine-weeks old.
The weight of feed intake by the individual mouse was measured, and the amount of energy intake (i.e., kilocalories) was calculated according to the feed from the energy value corresponding to 1 g of each experimental feed. After the eight-weeks' experiment by feeding with the respective experimental diets, the mice were subjected to autopsy to determine their body weight, and the weight of fat tissue sincluding the peri-epididymal fat, peri-renal fat, and mesenteric fat.

With `CC(C)C[C@H](N)C(=O)O` [leucine, L-leucine], in the data set with C57BL/6J male mice [1], the “body weight of mice at autopsy” value is listed as “not decreased” and the “weight of fat tissue of mice at autopsy (accumulation of body fat)” value was “not decreased”.

As to `C[C@@H](O)[C@H](N)C(=O)O` [threonine, L-threonine], in the data set with C57BL/6J male mice [2] (3.0% L-threonine, FIG. 15), the “amount of energy intake during the feeding period” value is reported as “not decreased”. The “body weight of mice at autopsy” value in the data set with C57BL/6J male mice [2] (compared with HF feed, 3.0% L-threonine (group 3T), FIG. 13) is reported as “decreased”. For the same compound, in the data set on C57BL/6J male mice [2] (compared with HF feed, 3.0% L-threonine (group 3T), FIG. 14), the “weight of fat tissue at autopsy” value is on record as “decreased”. For the same compound, in the data set on C57BL/6J male mice [1], the “body weight of mice at autopsy” value is “not decreased” and the “weight of fat tissue of mice at autopsy (accumulation of body fat)” value is “not decreased”.
